From US20230114241A1, “METHODS OF TREATING EPILEPSY USING THE SAME” (Trevena, Inc., priority 2019, published 2023)

How the values were obtained:
[1] = target: T1, human sphingosine-1-phosphate receptor 1 (S1P1) (Homo sapiens, UniProt P21453); test: Inhibition of cAMP production (HTRF cAMP HiRange), S1P1 CHO-K1 cells; assay type: cell-based; details: for Emax: CHO-K1, efficacy normalized to maximum efficacy of fingolimod, read-out: hS1P1 CAMP SPAN; for EC50: read-out: hS1P1 CAMP pEC50 (converted)
Summary of the method: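 CHO-K1 cells co-expressing human S1P1 (C-terminal ProLink tag) and EA-β-arrestin2, plated overnight; after 30 min compound incubation at 37 °C, intracellular cAMP measured by HTRF TR-FRET following 1 h at room temperature. Values normalized to fingolimod.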
Target sequence in this assay (P21453 whole entry): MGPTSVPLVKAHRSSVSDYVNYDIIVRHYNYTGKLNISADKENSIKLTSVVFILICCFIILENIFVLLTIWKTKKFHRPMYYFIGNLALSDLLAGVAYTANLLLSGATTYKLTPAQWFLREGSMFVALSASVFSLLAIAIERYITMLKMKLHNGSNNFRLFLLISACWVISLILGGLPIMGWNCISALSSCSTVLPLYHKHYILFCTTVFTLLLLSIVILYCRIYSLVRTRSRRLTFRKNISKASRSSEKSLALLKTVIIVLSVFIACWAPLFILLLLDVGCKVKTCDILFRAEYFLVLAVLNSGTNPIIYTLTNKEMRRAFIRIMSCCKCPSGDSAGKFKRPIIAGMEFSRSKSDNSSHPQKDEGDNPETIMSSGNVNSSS

[2] = target: T1, human sphingosine-1-phosphate receptor 1 (S1P1); test: β-Arrestin2 recruitment assay (PathHunter), S1P1 CHO-K1 cells; assay type: cell-based; details: for Emax: efficacy normalized to maximum efficacy of fingolimod, read-out: hS1P1 B-arrestin2 SPAN; for EC50: β-arrestin2 recruitment, read-out: hS1P1 B-arrestin2 pEC50 (converted)
Summary of the method: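 CHO-K1 cells co-expressing EA-β-arrestin2 and ProLink-tagged human S1P1 plated overnight, then stimulated 60 min at 37 °C. Enzyme-fragment complementation (β-galactosidase) detected after 1 h at room temperature by luminescence; values normalized to fingolimod.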
Target sequence in this assay (P21453 whole entry): as above
Target sequence in this assay (P32121 whole entry partner): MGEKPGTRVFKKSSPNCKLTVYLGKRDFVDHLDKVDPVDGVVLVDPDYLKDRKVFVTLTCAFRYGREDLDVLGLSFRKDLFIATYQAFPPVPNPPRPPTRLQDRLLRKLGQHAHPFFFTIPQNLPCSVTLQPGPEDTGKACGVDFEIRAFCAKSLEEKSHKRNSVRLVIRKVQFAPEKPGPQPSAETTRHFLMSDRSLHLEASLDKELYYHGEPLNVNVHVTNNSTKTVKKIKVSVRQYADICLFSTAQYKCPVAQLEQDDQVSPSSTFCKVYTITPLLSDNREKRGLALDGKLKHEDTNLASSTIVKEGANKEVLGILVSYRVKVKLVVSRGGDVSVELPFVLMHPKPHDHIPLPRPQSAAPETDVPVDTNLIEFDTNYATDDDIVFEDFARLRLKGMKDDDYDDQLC

[3] = inhibition of cAMP production, potency
[4] = CHO-K1, β-arrestin2 recruitment
[5] = inhibition of cAMP production, S1P1

Structure (SMILES)	Emax ([1]; inhibition of cAMP production)	EC50 [1, 3]	Emax [2, 4]	EC50 ([2]; potency)	Emax [1]	EC50 [1, 5]	Emax ([2]; CHO-K1)	EC50 ([2]; S1P1)
CCCn1nnc2cc(-c3nc(-c4ccc(C(F)(F)F)c(F)c4)no3)ccc21 [Compound 193, 5-{3-[3-fluoro-4-(trifluoromethyl)phenyl]-1,2,4-oxadiazol-5-yl}-1-propyl-1H-1,2,3-benzotriazole]	< 75%	> 316 nM	< 75%	> 10000 nM				
CCC1(CC)CC(=O)c2cc(-c3nc(-c4ncccn4)no3)ccc2O1 [Compound 640, 2,2-diethyl-6-(3-(pyrimidin-2-yl)-1,2,4-oxadiazol-5-yl)chroman-4-one]					> 75%	> 316 nM	< 75%	> 10000 nM
CCC1(CC)C/C(=N\O)c2cc(-c3nc(-c4cccnc4)no3)ccc2O1 [Compound 431, N-[(4E)-2,2-diethyl-6-[3-(pyridin-3-yl)-1,2,4-oxadiazol-5-yl]-3,4-dihydro-2H-1-benzopyran-4-ylidene]hydroxylamine]					> 75%	> 316 nM	> 75%	> 10000 nM
COc1ccccc1-c1nnc(-c2ccc3c(c2)nnn3C(C)C)s1 [Compound 144, 5-[5-(2-methoxyphenyl)-1,3,4-thiadiazol-2-yl]-1-(propan-2-yl)-1H-1,2,3-benzotriazole]	> 75%	> 316 nM	< 75%	< 10000 nM				
CC(C)n1nnc2cc(-c3nc4cccc(Br)c4o3)ccc21 [Compound 429, 7-bromo-2-(1-isopropyl-1H-benzo[d][1,2,3]triazol-5-yl)benzo[d]oxazole]					> 75%	> 316 nM	> 75%	> 10000 nM
CCC1(CC)CC(=O)c2cc(-c3ncc(-c4cccnc4)cn3)ccc2O1 [Compound 509, 2,2-diethyl-6-(5-(pyridin-3-yl)pyrimidin-2-yl)chroman-4-one]					< 75%	> 316 nM	> 75%	> 10000 nM
CC(C)n1ccc2cc(-c3noc(-c4cccnc4)n3)ccc21 [Compound 396, 3-(1-isopropyl-1H-indol-5-yl)-5-(pyridin-3-yl)-1,2,4-oxadiazole]					< 75%	> 316 nM	> 75%	> 10000 nM
CC(C)Cn1nnc2cc(-c3nc(-c4ccccc4Cl)no3)ccc21 [Compound 289, 5-[3-(2-chlorophenyl)-1,2,4-oxadiazol-5-yl]-1-(2-methylpropyl)-1H-1,2,3-benzotriazole]	< 75%	> 316 nM	< 75%	> 10000 nM				
Cc1ccc(-c2nc(-c3ccc4c(c3)nnn4C(C)C)no2)c(C)c1 [Compound 166, 5-(2,4-dimethylphenyl)-3-(1-isopropyl-1H-benzo[d][1,2,3]triazol-5-yl)-1,2,4-oxadiazole]	< 75%	> 316 nM	> 75%	> 10000 nM				
CC(C)n1nnc2cc(-c3cc(-c4ccccc4F)c[nH]3)ccc21 [Compound 542, 5-[4-(2-fluorophenyl)-1H-pyrrol-2-yl]-1-(propan-2-yl)-1H-1,2,3-benzotriazole]					< 75%	> 316 nM	< 75%	< 10000 nM
CC(C)Cn1nnc2cc(-c3nc4cccc(Br)c4o3)ccc21 [Compound 454, 7-bromo-2-(1-isobutyl-1H-benzo[d][1,2,3]triazol-5-yl)benzo[d]oxazole]					> 75%	< 316 nM	> 75%	
CCC1(CC)CC(=O)c2cc(-c3nc(-c4ccc(C(F)(F)F)nc4)no3)ccc2O1 [Compound 548, 2,2-diethyl-6-(3-(6-(trifluoromethyl)pyridin-3-yl)-1,2,4-oxadiazol-5-yl)chroman-4-one]					< 75%	> 316 nM	< 75%	> 10000 nM
Brc1ccccc1-c1nc(-c2ccc3c(c2)nnn3Cc2ccccc2)no1 [Compound 52, 3-(1-benzyl-1H-benzo[d][1,2,3]triazol-5-yl)-5-(2-bromophenyl)-1,2,4-oxadiazole]	< 75%	> 316 nM	< 75%	> 10000 nM				
Cc1ccccc1-c1cc(-c2ccc3c(c2)nnn3C(C)C)c[nH]1 [Compound 601, 5-[5-(2-methylphenyl)-1H-pyrrol-3-yl]-1-(propan-2-yl)-1H-1,2,3-benzotriazole]					> 75%	> 316 nM	< 75%	< 10000 nM
Cc1ccccc1-c1noc(-c2cnc3c(c2)nnn3C(C)C)n1 [Compound 382, 3-(2-methylphenyl)-5-[3-(propan-2-yl)-3H-[1,2,3]triazolo[4,5-b]pyridin-6-yl]-1,2,4-oxadiazole]					> 75%	< 316 nM	> 75%	< 10000 nM
CCC1(CC)CC(=O)c2cc(-c3ncc(-c4ccnc(O)c4)cn3)ccc2O1 [Compound 552, 2,2-diethyl-6-(5-(2-hydroxypyridin-4-yl)pyrimidin-2-yl)chroman-4-one]					< 75%	> 316 nM	< 75%	> 10000 nM
Cc1ccncc1-c1noc(-c2cnc3c(c2)nnn3C(C)C)n1 [Compound 414, 4-methyl-3-{5-[3-(propan-2-yl)-3H-[1,2,3]triazolo[4,5-b]pyridin-6-yl]-1,2,4-oxadiazol-3-yl}pyridine]					< 75%	< 316 nM	> 75%	> 10000 nM
Cc1cnccc1-c1noc(-c2ccc3c(c2)nnn3CC(C)(C)O)n1 [Compound 597, 2-methyl-1-{5-[3-(3-methylpyridin-4-yl)-1,2,4-oxadiazol-5-yl]-1H-1,2,3-benzotriazol-1-yl}propan-2-ol]					> 75%	< 316 nM	> 75%	< 10000 nM
CC(C)n1nnc2cc(-c3ncc(-c4ccc(F)cc4)s3)ccc21 [Compound 37, 5-(4-fluorophenyl)-2-(1-isopropyl-benzotriazol-5-yl)thiazole]	< 75%	> 316 nM	< 75%	> 10000 nM				
COc1ccc2oc(-c3ccc4c(c3)nnn4C(C)C)nc2c1 [Compound 425, 2-(1-isopropyl-1H-benzo[d][1,2,3]triazol-5-yl)-5-methoxy-benzo[d]oxazole]					> 75%	< 316 nM	> 75%	< 10000 nM
Cc1ccccc1-c1noc(-c2ccc3c(c2)CCC(=O)N3C)n1 [Compound 367, 1-methyl-6-[3-(2-methyl-phenyl)-1,2,4-oxadiazol-5-yl]-1,2,3,4-tetrahydroquinolin-2-one]	< 75%	> 316 nM	< 75%	> 10000 nM				
O=C1CC2(CCOCC2)Oc2ccc(-c3nc(-c4ccncc4)no3)cc21 [Compound 148, 6-[3-(pyridin-4-yl)-1,2,4-oxadiazol-5-yl]-3,4-dihydrospiro [1-benzopyran-2,4′-oxane]-4-one]	< 75%	> 316 nM	< 75%	> 10000 nM				
COc1ccccc1-c1nnc(-c2ccc3c(c2)nnn3C(C)C)o1 [Compound 35, 5-[5-(2-methoxyphenyl)-1,3,4-oxadiazol-2-yl]-1-(propan-2-yl)-1H-1,2,3-benzotriazole]	> 75%	> 316 nM	> 75%	> 10000 nM				
COc1ccccc1-c1noc(-c2ccc3c(cnn3C(C)C)c2)n1 [Compound 370, 5-(1-isopropyl-1H-indazol-5-yl)-3-(2-methoxyphenyl)-1,2,4-oxadiazole]	> 75%	< 316 nM	> 75%	< 10000 nM				
